Results: patent US8481531B2, “Bicyclic heterocyclyl derivatives as FGFR kinase inhibitors for therapeutic use” (Astex Therapeutics Ltd, priority 2009, dated 2013)

Assays:
FGFR3 = molecular target: T1, FGFR3 (Homo sapiens, UniProt P22607); assay: FGFR3 in vitro kinase inhibitory activity assay (TRF); format: biochemical; conditions: 8 μM ATP, 3 hours; read-out: FGFR3 IC50(μM) or % I
T1 construct: purchased Upstate
Procedure: (§1) FGFR3, VEGFR2 and PDGFR in vitro Kinase Inhibitory Activity Assays
(§2) Enzymes (from Upstate), prepared at 2× final concentration, were incubated with test compounds, biotinylated Flt3 substrate (biotin-VASSDNEYFYVDF) (Cell Signalling Technology Inc.) and ATP in the appropriate assay buffer (Table 1). The reaction was allowed to proceed for 3 hours (FGFR3), 1 hour (VEGFR2, PDGFR-beta) at room temperature on a plate shaker at 700 rpm before being stopped with 35 mM EDTA, pH 8 (FGFR3, VEGFR2) or 55 mM EDTA, pH 8 (PDGFR-beta). 5× detection mix (50 mM HEPES pH 7.5, 0.1% BSA, 11.34 nM Eu-anti-pY (PY20) (PerkinElmer) 74 nM SA-XL665 (Cisbio) for FGFR3, 50 mM HEPES, pH 7.5, 0.1% BSA, 11.34 nM Eu-anti-pY (PY20), 187.5 nM SA-XL665 for VEGFR2 and 50 mM HEPES, pH 7.5, 0.1% BSA, 11.34 nM Eu-anti-pY (PT66) (PerkinElmer), 375 nM SA-XL665 (Cisbio) for PDGFR-beta) was then added to each well and the plate sealed and incubated at room temperature for one hour on a plate shaker at 700 rpm. The plate was then read on a Packard Fusion plate reader or a BMG Pherastar both in TRF mode.

VEGFR2 = molecular target: T2, VEGFR2 (Homo sapiens, UniProt P35968); assay: VEGFR2 in vitro kinase inhibitory activity assay (TRF); format: biochemical; conditions: 0.5 μM ATP, 1 hour; read-out: VEGFR2 IC50(μM) or % I
T2 construct: purchased Upstate
T2 sequence (P35968 20-1356): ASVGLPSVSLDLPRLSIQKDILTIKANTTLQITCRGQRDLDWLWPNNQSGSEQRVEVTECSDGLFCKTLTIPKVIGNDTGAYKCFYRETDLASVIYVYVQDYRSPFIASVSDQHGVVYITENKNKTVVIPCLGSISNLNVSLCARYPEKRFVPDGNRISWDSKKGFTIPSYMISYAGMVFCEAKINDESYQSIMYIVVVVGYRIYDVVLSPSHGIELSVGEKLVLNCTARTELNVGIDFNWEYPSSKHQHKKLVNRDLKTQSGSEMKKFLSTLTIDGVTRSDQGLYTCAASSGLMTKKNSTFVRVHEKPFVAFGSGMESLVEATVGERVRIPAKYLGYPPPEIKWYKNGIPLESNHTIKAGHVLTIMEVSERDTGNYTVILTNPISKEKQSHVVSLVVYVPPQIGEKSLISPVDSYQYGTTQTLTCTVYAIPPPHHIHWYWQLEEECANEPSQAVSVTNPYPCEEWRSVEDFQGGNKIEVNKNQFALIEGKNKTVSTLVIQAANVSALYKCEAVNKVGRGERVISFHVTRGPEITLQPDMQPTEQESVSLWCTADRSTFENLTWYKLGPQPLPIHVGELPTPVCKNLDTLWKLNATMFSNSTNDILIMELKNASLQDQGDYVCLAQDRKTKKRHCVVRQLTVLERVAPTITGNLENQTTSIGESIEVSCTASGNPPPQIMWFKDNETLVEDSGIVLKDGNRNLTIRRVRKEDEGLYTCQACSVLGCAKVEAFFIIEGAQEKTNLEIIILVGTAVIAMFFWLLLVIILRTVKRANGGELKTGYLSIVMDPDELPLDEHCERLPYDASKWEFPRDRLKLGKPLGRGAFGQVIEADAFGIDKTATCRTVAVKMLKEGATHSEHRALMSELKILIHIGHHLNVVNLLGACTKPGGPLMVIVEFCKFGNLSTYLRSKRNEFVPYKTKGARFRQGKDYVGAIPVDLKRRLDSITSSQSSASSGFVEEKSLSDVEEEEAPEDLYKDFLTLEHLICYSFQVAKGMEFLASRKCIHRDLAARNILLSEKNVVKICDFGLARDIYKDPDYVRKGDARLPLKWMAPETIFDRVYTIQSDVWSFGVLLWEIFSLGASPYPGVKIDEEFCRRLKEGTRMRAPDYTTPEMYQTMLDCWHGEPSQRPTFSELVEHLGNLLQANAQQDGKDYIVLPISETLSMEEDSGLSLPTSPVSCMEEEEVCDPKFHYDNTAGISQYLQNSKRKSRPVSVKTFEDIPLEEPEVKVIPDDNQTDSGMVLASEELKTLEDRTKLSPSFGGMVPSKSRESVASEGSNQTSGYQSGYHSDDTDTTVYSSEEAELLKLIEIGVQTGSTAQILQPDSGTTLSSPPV
Procedure: as §1, §2

[1] = test system: parental wild-type Ba/F3 cells; assay: Ba/F3 (WT) cell proliferation assay (Alamar Blue); format: cell-based; conditions: BaF3, 72 hours, read-out: BaF3 WT prolif; for IC50: with mouse IL-3
Procedure: (§3) Ba/F3-TEL-FGFR3 & Ba/F3 (WT) Cell Proliferation Assays
(§4) Stably transfected Ba/F3-TEL-FGFR3 cells were plated out into black 96-well tissue culture plates with clear bottoms in RPMI medium containing 10% FBS and 0.25 mg/ml G418 at a density of 5×10^3 cells/well (200 μl per well). The parental wild-type Ba/F3 cells (DSMZ no.: ACC 300) were plated out into black 96-well tissue culture plates with clear bottoms in RPMI medium containing 10% FBS and 2 ng/ml mouse IL-3 (R&D Systems) at a density of 2.5×10^3 cells/well (200 μl per well). Plates were placed in an incubator overnight before adding the compounds the following day. Dilutions of compounds were made in DMSO starting at 10 mM and were diluted into the wells to give a final DMSO concentration of 0.1% in assay. Compounds were left on the cells for 72 hours before the plates were removed from the incubator and 20 μl of Alamar Blue™ (Biosource) was added to each well. Plates were placed in the incubator for 4-6 hours before reading plates at 535 nm (excitation)/590 nm (emission) on a Fusion plate reader (Packard). Where inhibition is high an IC50 can be determined.

Ba/F3-TEL-FGFR3 cells = molecular target: T3, Ba/F3-TEL-FGFR3 cells (Homo sapiens, UniProt P22607); assay: Ba/F3-TEL-FGFR3 cell proliferation assay (Alamar Blue); format: cell-based; conditions: 72 hours; for GI50: read-out: BaF3-TEL-FGFR3 prolif
T3 construct: fused on or other part: P41212 (Transcription factor ETV6)
T3 sequence (P22607 whole entry, change not shown, the tested form may be a part): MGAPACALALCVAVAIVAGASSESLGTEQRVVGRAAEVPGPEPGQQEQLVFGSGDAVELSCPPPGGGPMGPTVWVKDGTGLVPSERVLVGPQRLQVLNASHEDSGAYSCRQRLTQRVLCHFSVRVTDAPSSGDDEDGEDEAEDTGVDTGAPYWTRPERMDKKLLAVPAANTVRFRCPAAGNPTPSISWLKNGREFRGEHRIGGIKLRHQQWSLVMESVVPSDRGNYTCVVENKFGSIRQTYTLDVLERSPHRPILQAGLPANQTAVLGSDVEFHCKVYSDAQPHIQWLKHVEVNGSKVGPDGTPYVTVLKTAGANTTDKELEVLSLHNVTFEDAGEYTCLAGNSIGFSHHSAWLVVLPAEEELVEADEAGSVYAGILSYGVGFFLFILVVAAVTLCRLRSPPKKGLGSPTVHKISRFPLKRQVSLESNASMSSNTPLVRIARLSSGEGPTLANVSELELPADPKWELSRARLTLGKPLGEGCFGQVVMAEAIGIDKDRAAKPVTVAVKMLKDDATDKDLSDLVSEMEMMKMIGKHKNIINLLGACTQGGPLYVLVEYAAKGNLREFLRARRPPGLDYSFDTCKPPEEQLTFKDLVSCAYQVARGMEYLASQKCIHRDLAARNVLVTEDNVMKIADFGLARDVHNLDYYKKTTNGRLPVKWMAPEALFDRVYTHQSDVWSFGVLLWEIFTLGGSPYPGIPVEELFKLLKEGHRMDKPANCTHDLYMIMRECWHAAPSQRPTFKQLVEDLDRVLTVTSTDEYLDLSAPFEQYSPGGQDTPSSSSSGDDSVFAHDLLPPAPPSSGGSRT
Procedure: as §3, §4

T1 sequence (P22607 23-806): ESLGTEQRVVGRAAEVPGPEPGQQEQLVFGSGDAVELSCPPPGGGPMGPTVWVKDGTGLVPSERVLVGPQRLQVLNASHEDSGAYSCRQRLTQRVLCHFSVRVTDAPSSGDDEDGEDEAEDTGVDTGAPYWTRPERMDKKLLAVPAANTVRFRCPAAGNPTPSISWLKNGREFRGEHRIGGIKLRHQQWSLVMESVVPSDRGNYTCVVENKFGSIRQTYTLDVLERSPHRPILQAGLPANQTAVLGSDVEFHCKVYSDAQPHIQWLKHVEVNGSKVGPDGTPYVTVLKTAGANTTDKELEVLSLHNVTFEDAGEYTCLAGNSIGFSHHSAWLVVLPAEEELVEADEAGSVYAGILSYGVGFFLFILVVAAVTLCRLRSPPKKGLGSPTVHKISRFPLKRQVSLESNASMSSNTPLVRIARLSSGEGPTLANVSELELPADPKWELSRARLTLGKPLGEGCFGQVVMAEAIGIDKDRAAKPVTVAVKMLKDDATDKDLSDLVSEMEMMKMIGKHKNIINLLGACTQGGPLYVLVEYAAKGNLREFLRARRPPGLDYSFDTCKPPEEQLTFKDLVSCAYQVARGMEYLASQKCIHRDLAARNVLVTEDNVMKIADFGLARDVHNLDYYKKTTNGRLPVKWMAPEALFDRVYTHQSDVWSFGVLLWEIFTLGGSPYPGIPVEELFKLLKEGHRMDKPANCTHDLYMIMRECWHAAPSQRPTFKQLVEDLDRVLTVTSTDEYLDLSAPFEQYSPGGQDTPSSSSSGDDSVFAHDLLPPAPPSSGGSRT

IC50 (FGFR3) | IC50 (VEGFR2) | GI50 (Ba/F3-TEL-FGFR3 cells) | BaF3-TEL-FGFR3 prolif (μM) (Ba/F3-TEL-FGFR3 cells; % at 10.0 μM) | SMILES | inhibition at 10 µM ([1]; Mus musculus) | IC50 [1] | inhibition at 3 µM ([1]; Mus musculus) | inhibition at 1 µM ([1]; Mus musculus, % at 1.00 μM)
0.017 µM | 0.54 µM | 1300 nM | – | CN(CCON=Cc1ccn2c(-c3cccc(NC(=O)NCC(F)(F)F)c3)cnc2c1)CCS(C)(=O)=O [Compound 1-42, 1-{3-[7-({2-[(2-Methanesulfonyl-ethyl)-methyl-amino]-ethoxyimino}-methyl)-imidazo[1,2-a]pyridin-3-yl]-phenyl}-3-(2,2,2-trifluoro-ethyl)-urea] | 10% | – | – | –
0.0041 µM | 0.068 µM | 48 nM | – | COCCO/N=C(\C)c1ccn2c(-c3cccc(NC(=O)NCC(F)(F)F)c3)cnc2c1 [Compound 1-45, 1-[3-(7-{1-[2-Methoxy-ethoxyimino]-ethyl}-imidazo[1,2-a]pyridin-3-yl)-phenyl]-3-(2,2,2-trifluoro-ethyl)-urea] | – | 4000 nM | – | –
0.026 µM | 0.39 µM | 1800 nM | – | O=C(NCC(F)(F)F)Nc1cccc(-c2cnc3cc(C=NOCCCN4CCC(O)C4)ccn23)c1 (stereo not shown) [Compound 1-38, 1-[3-(7-{[3-(3-Hydroxy-pyrrolidin-1-yl)-propoxyimino]-methyl}-imidazo[1,2-a]pyridin-3-yl)-phenyl]-3-(2,2,2-trifluoro-ethyl)-urea] | 21% | – | – | –
0.059 µM | > 1 µM | – | 28.0% at | CON=C(CC1CC1)c1ccn2c(-c3cccc(NC(=O)NCC(F)(F)F)c3)cnc2c1 [Compound 1-29, 1-[3-(7-{2-Cyclopropyl-1-methoxyimino-ethyl}-imidazo[1,2-a]pyridin-3-yl)-phenyl]-3-(2,2,2-trifluoro-ethyl)-urea] | 16% | – | – | –
0.024 µM | 0.36 µM | 380 nM | – | COC1CCN(CCCON=Cc2ccn3c(-c4cccc(NC(=O)NCC(F)(F)F)c4)cnc3c2)CC1 [Compound 1-36, 1-[3-(7-{[3-(4-Methoxy-piperidin-1-yl)-propoxyimino]-methyl}-imidazo[1,2-a]pyridin-3-yl)-phenyl]-3-(2,2,2-trifluoro-ethyl)-urea] | – | – | 34% | –
0.023 µM | 0.33 µM | 560 nM | – | O=C(NCC(F)(F)F)Nc1cccc(-c2cnc3cc(C=NOCCCN4CCCC4)ccn23)c1 [Compound 1-35, 1-(3-{7-[(3-Pyrrolidin-1-yl-propoxyimino)-methyl]-imidazo[1,2-a]pyridin-3-yl}-phenyl)-3-(2,2,2-trifluoro-ethyl)-urea] | – | – | 28% | –
0.0313 µM | 0.877 µM | 2300 nM | – | O=C(NCC(F)(F)F)Nc1cccc(-c2cnc3cc(C=NOc4ncccn4)ccn23)c1 [Compound 1-5, 1-(3-{7-[(Pyrimidin-2-yloxyimino)-methyl]-imidazo[1,2-a]pyridin-3-yl}-phenyl)-3-(2,2,2-trifluoro-ethyl)-urea] | 10% | – | – | –
0.015 µM | 0.23 µM | 260 nM | – | CON=C(c1ccn2c(-c3cccc(NC(=O)NCC(F)(F)F)c3)cnc2c1)C1CC1 [Compound 1-24, 1-[3-(7-{Cyclopropyl-methoxyimino-methyl}-imidazo[1,2-a]pyridin-3-yl)-phenyl]-3-(2,2,2-trifluoro-ethyl)-urea] | – | – | – | 38%
0.035 µM | 0.81 µM | 480 nM | – | COCCNCCON=Cc1ccn2c(-c3cccc(NC(=O)NCC(F)(F)F)c3)cnc2c1 [Compound 1-53, 1-[3-(7-{[2-(2-Methoxy-ethylamino)-ethoxyimino]-methyl}-imidazo[1,2-a]pyridin-3-yl)-phenyl]-3-(2,2,2-trifluoro-ethyl)-urea] | – | 13000 nM | – | –
0.018 µM | 0.54 µM | 240 nM | – | Cc1noc(C)c1CON=Cc1ccn2c(-c3cccc(NC(=O)NCC(F)(F)F)c3)cnc2c1 [Compound 1-12, 1-(3-{7-[(3,5-Dimethyl-isoxazol-4-ylmethoxyimino)-methyl]-imidazo[1,2-a]pyridin-3-yl}-phenyl)-3-(2,2,2-trifluoro-ethyl)-urea] | 38% | – | – | –
0.0551 µM | 1.79 µM | 860 nM | – | COCCN(CCON=Cc1ccn2c(-c3cccc(NC(=O)NCC(F)(F)F)c3)cnc2c1)Cc1ccccc1 [Compound 1-41, 1-{3-[7-({2-[Benzyl-(2-methoxy-ethyl)-amino]-ethoxyimino}-methyl)-imidazo[1,2-a]pyridin-3-yl]-phenyl}-3-(2,2,2-trifluoro-ethyl)-urea] | – | 5900 nM | – | –
0.018 µM | 0.682 µM | 310 nM | – | O=C(NCC(F)(F)F)Nc1cccc(-c2cnc3cc(C=NOCCCN4CCOCC4)ccn23)c1 [Compound 1-3, 1-(3-{7-[(3-Morpholin-4-yl-propoxyimino)-methyl]-imidazo[1,2-a]pyridin-3-yl}-phenyl)-3-(2,2,2-trifluoro-ethyl)-urea] | – | 2800 nM | – | –
0.019 µM | 0.33 µM | 1400 nM | – | O=C(NCC(F)(F)F)Nc1cccc(-c2cnc3cc(C=NOCCC4CCN(CCO)CC4)ccn23)c1 [Compound 1-49, 1-{3-[7-({2-[1-(2-Hydroxy-ethyl)-piperidin-4-yl]-ethoxyimino}-methyl)-imidazo[1,2-a]pyridin-3-yl]-phenyl}-3-(2,2,2-trifluoro-ethyl)-urea] | – | – | 36% | –
0.019 µM | 0.38 µM | 320 nM | – | CN1CCN(CCCON=Cc2ccn3c(-c4cccc(NC(=O)NCC(F)(F)F)c4)cnc3c2)CC1 [Compound 1-56, 1-[3-(7-{[3-(4-Methyl-piperazin-1-yl)-propoxyimino]-methyl}-imidazo[1,2-a]pyridin-3-yl)-phenyl]-3-(2,2,2-trifluoro-ethyl)-urea] | – | 3000 nM | – | –
0.0097 µM | 0.23 µM | 300 nM | – | O=C(NCC(F)(F)F)Nc1cccc(-c2cnc3cc(C(=NO)C4CC4)ccn23)c1 [Compound 1-50, 1-[3-(7-{Cyclopropyl-hydroxyimino-methyl}-imidazo[1,2-a]pyridin-3-yl)-phenyl]-3-(2,2,2-trifluoro-ethyl)-urea] | 62% | – | – | –
0.014 µM | 0.23 µM | 260 nM | – | O=C(NCC(F)(F)F)Nc1cccc(-c2cnc3cc(C=NOCc4ccncc4)ccn23)c1 [Compound 1-4, 1-(3-{7-[(Pyridin-4-ylmethoxyimino)-methyl]-imidazo[1,2-a]pyridin-3-yl}-phenyl)-3-(2,2,2-trifluoro-ethyl)-urea] | – | 5300 nM | – | –
0.023 µM | 1.34 µM | 470 nM | – | CC(C)Oc1cc(NC(=O)NCC(F)(F)F)cc(-c2cnc3cc(/C(=N/O)C4CC4)ccn23)c1 [Compound 1-31, 1-[3-(7-{Cyclopropyl-hydroxyimino-methyl}-imidazo[1,2-a]pyridin-3-yl)-5-isopropoxy-phenyl]-3-(2,2,2-trifluoro-ethyl)-urea] | – | 6200 nM | – | –
0.027 µM | 0.68 µM | 560 nM | – | CC(C)(C)c1nc(CON=Cc2ccn3c(-c4cccc(NC(=O)NCC(F)(F)F)c4)cnc3c2)no1 [Compound 1-14, 1-(3-{7-[(5-tert-Butyl-[1,2,4]oxadiazol-3-ylmethoxyimino)-methyl]-imidazo[1,2-a]pyridin-3-yl}-phenyl)-3-(2,2,2-trifluoro-ethyl)-urea] | – | – | 43% | –
0.029 µM | 0.44 µM | 930 nM | – | O=C(NCC(F)(F)F)Nc1cccc(-c2cnc3cc(C=NOCC(O)CNC4CC4)ccn23)c1 (stereo not shown) [Compound 1-61, 1-(3-{7-[(3-Cyclopropylamino-2-hydroxy-propoxyimino)-methyl]-imidazo[1,2-a]pyridin-3-yl}-phenyl)-3-(2,2,2-trifluoro-ethyl)-urea] | – | – | 30% | –
